Assay results from patent US9205064B2, “Methods for the diagnosis of oncological disorders using epimetabolic shifters, multidimensional intracellular molecules, or environmental influencers” (Berg LLC, priority 2009, dated 2015).

How the values were obtained:
[1] = tested on: SKMEL-28 mitochondria; assay: 2-D gel electrophoresis of mitochondria enriched samples; assay type: cell-based
[2] = tested on: Isocitrate Dehydrogenase-1 (IDH-1); assay: Western blot of IDH1 levels in normal and cancer cells; assay type: cell-based, human; conditions: PACA2, 5g48-100
Protocol: (§1) The whole cell pellets were resuspended one at a time in 1 mL of C7 buffer and transferred to labeled 15 mL tubes. The samples were then sonicated in the cold room on ice using 6 sonic pulses with the setting at #14. The samples were spun for a short time to 2500 g after sonication and the samples transferred to 2 ml tubes. The pH was verified of each sample (pH should be 9.0) using the foam remaining in the […] sample tubes.
Alkylation and reduction of samples was performed for each sample by adding 10 ul of 1M acrylamide, 25 ul of tributylphoshene and incubation for 90 mins with intermittent mixing. After incubation, 10 ul of 1M DTT was added and the tubes were spun at 20,000 g at 20 deg C. for 10 minutes and transferred the supernatant to labeled Amicon Ultra centrifugal filter units with a 10 k cut off (Millipore catalog #UFC 801024). The samples were spun for 15 minutes at 2500 g in 2 intervals. The conductivity was measured for Chaps alone as well as the samples using a conductivity meter. If the conductivity of samples is high, then 1 ml of chaps was added for buffer exchange and spun again at 2500 g until the volume was down to 250 ul. […]
The samples were processed as per standard protocols as described above and the amount of protein in each of the samples was determined by Bradford assay. […]

[3] = tested on: ATP Citrate Lyase (ACL); assay: Western blot of ATP citrate lyase levels in normal and cancer cells; assay type: cell-based, human
Protocol: as §1
After transfer each of the blots was placed in between 2 Whatman Filter papers and dried for 15-20 minutes. After drying the blots were labeled with the date, the type of samples and either blot 1 or blot 2 using a HB pencil. The molecular weight markers were outlined with the pencil and with single lines for the blue and a doublet for the colored markers. The blots were activated with methanol for 5 seconds, washed with water for 5 minutes, and TBST for 15 minutes. The blots were blocked for 1 hour with 5% blocking reagent in TBS-T at room temperature and then washed 3 times with TBS-T (1×-15′; 2×5′ each). Blot 1 was probed with the primary antibody for IDH1 (Cell Signaling #3997) in TBST with 5% BSA (at 1:1000 dilutions) and blot 2 with the rabbit polyclonal antibody for ATP Citrate Lyase in 5% BSA (Cell Signaling #4332) at 1:1000 dilution by incubation overnight at 4 deg C. with shaking. After the overnight incubation with primary antibodies, the blots were washed 3 times with TBS-T (1×-15′; 2×5′ each) and probed with the secondary antibody (antirabbit; 1:10,000 dilution) for 1 h on the orbital tilting shaker at room temperature. After 1 h of incubation with secondary antibodies, the blots were washed 3 times with TBS-T (1×-15′; 2×5′ each) and then incubated with ECF reagent for 5 mins and then each blot scanned with 5100 Fuji Laser scanner at 25 uM resolution, 16 bit, green laser, at 400V and at 500 V.
The samples were processed and run on a 4-12% Bis-Tris Novex NuPAGE gel as described above. The gels were run, transferred and stained essentially as described above.
The Isocitrate dehydrogenase blot was stripped by incubating for 30 minutes with methanol, followed by two 10 minute washes with TBS-T, then 30 minutes of incubation with stripping buffer at 50 deg C., and followed by two washes with 100 ml or more of TBS-T for 30′ each. The blot was scanned in laser scanner to check for complete stripping. The blot was activated with methanol for 5 seconds, washed with water for 5 minutes, and TBST for 15 minutes. The blot was blocked for 1 hour with 5% blocking reagent in TBS-T at room temperature and then washed 3 times with TBS-T (1×-15′; 2×5′ each). This was then probed with the rabbit polyclonal antibody for ATP Citrate Lyase in 5% BSA (Cell Signaling #4332) at 1:1000 dilution overnight at 4 deg C. with shaking. After the overnight incubation with primary antibody for ATP Citrate Lyase, the membrane was washed 3 times with TBS-T (1×-15′; 2×5′ each) and probed with the secondary antibody (antirabbit; 1:10,000 dilution) for 1 h on the orbital tilting shaker at room temperature. After 1 h of incubation with secondary antibodies, the blot was washed 3 times with TBS-T (1×-15′; 2×5′ each) and then incubated with ECF reagent for 5 minutes and then each blot scanned with 5100 Fuji Laser scanner at 25 uM resolution, 16 bit, green laser, at 400V and at 500 V.
In this experiment (western blot experiment 3), and in all of the experiments described below in this Example (i.e., western blot experiments 4 through 9), the cells were additionally treated with either 5 mM glucose (“5G”) or 22 mM glucose (“22G”). The samples derived from the cells were processed and run on a 4-12% Bis-Tris Novex NuPAGE gel as described above. The gels were run, transferred and stained essentially as described above.
The levels of IDH1, ATP citrate lyase and actin levels were determined by probing the blots with primary antibodies for IDH1, ATP citrate lyase and actin, essentially as described above.

## COC1=C(OC)C(=O)C(C/C=C(\C)CC/C=C(\C)CC/C=C(\C)CC/C=C(\C)CC/C=C(\C)CC/C=C(\C)CC/C=C(\C)CC/C=C(\C)CC/C=C(\C)CCC=C(C)C)=C(C)C1=O [Q10, Coenzyme Q10]
[1]; 100 μM Q10, 19 and 48 hr
  PDIA3 (ER60 protein), spot 110: Response: Up at 19 and 48 hr
  Unknown, spot 131: Response: drops more for 19
[1]; 100 μM Q10, 48 hr
  CCDC58, spot 75: Response: Up at 48 hr
[1]; 100 μM Q10, after 6 hr
  Unknown protein, spot 11: Response: drop to low levels
[1]; 100 μM Q10, only at 19 hr
  Beta-Actin, spot 202: Response: Up only at 19 hr
  KRT10 (Keratin 10), spot 185: Response: Up only at 19 hr
  MLEC (Malectin), spot 246: Response: Up only at 19 hr
[2]
  IDH1 Normalized Intensity (HASMC vs. PACA2): 860
[3]; HASMC, 5g48-50
  ATP Citrate Lysase ~kd band Normalized Intensity (HASMC vs. HepG2): 23341
  ATP Citrate Lysase ~kd band Normalized Intensity (HASMC vs. PACA2): 12056
[3]; HASMC, 5g48-100
  ATP Citrate Lysase ~kd band Normalized Intensity (HASMC vs. HepG2): 25544
  ATP Citrate Lysase ~kd band Normalized Intensity (HASMC vs. PACA2): 15265
[3]; HASMC, 22G48-50
  ATP Citrate Lysase ~kd band Normalized Intensity (HASMC vs. HepG2): 21439
  ATP Citrate Lysase ~kd band Normalized Intensity (HASMC vs. PACA2): 15857
[3]; HASMC, 22G48-100
  ATP Citrate Lysase ~kd band Normalized Intensity (HASMC vs. HepG2): 19491
  ATP Citrate Lysase ~kd band Normalized Intensity (HASMC vs. PACA2): 13892
[3]; HepG2, 5g48-50
  ATP Citrate Lysase ~kd band Normalized Intensity (HASMC vs. HepG2): 24106
[3]; HepG2, 5g48-100
  ATP Citrate Lysase ~kd band Normalized Intensity (HASMC vs. HepG2): 22463
[3]; HepG2, 22G48-50
  ATP Citrate Lysase ~kd band Normalized Intensity (HASMC vs. HepG2): 31235
[3]; HepG2, 22G48-100
  ATP Citrate Lysase ~kd band Normalized Intensity (HASMC vs. HepG2): 50588
[3]; PACA2, 5g48-50
  ATP Citrate Lysase ~kd band Normalized Intensity (HASMC vs. PACA2): 8027
[3]; PACA2, 5g48-100
  ATP Citrate Lysase ~kd band Normalized Intensity (HASMC vs. PACA2): 4942
[3]; PACA2, 22G48-50
  ATP Citrate Lysase ~kd band Normalized Intensity (HASMC vs. PACA2): 9537
[3]; PACA2, 22G48-100
  ATP Citrate Lysase ~kd band Normalized Intensity (HASMC vs. PACA2): 14901
